Like-named read-outs stand apart in the source and are kept apart here.
Columns and labels:
SRC = molecular target: T1, SRC (Homo sapiens, UniProt P12931); experiment: In vitro kinase assay (Z'-LYTE, Invitrogen); type: biochemical; conditions: compound at 100 nM, ATP Km apparent, read-out: % of inhibition of the kinase compared to the control
T1 construct: purchased Invitrogen
Procedure, shortened: (§1)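 Compounds were tested at 100 nM in 1% DMSO final against each kinase with its peptide substrate, ATP at apparent Km, in 50 mM HEPES pH 7.5 with 10 mM MgCl2, 1 mM EGTA, 0.01% BRIJ-35. Phosphorylation was quantified by Z′-LYTE coupled protease/FRET emission ratio.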

PDGFRA (PDGFR alpha) = molecular target: T2, PDGFRA (PDGFR alpha) (Homo sapiens, UniProt P16234); experiment: In vitro kinase assay (Z'-LYTE, Invitrogen); type: biochemical; conditions: compound at 100 nM, ATP Km apparent, read-out: % of inhibition of the kinase compared to the control
T2 construct: purchased Invitrogen
T2 sequence (P16234 24-1089): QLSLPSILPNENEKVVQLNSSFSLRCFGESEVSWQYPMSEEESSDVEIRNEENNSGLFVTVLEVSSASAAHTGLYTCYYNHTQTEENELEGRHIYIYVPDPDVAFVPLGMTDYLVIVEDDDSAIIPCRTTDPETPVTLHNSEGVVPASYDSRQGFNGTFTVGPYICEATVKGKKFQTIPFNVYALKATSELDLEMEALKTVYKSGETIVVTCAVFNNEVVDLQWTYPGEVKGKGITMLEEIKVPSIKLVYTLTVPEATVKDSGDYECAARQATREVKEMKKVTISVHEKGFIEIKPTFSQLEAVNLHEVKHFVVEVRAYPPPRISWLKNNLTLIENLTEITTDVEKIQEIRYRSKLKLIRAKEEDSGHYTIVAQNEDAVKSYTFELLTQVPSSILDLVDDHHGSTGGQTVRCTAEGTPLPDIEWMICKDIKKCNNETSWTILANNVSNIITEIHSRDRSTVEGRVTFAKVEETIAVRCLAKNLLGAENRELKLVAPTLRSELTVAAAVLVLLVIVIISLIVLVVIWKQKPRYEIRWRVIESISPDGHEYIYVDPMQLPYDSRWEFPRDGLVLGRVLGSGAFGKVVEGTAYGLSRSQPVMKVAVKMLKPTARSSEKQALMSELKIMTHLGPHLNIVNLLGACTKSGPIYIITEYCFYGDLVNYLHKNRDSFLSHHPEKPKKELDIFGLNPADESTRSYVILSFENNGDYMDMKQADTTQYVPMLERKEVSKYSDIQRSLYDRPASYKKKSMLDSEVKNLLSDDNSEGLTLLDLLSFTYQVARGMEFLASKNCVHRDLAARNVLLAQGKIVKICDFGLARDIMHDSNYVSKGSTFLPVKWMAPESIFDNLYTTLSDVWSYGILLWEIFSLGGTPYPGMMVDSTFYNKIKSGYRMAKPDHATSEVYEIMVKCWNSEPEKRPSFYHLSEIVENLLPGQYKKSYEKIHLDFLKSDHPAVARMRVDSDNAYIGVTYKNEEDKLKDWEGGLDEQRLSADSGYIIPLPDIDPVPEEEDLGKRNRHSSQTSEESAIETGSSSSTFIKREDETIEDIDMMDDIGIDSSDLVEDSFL
Procedure, shortened: as §1

KDR (VEGFR2) = molecular target: T3, KDR (VEGFR2) (Homo sapiens, UniProt P35968); experiment: In vitro kinase assay (Z'-LYTE, Invitrogen); type: biochemical; conditions: compound at 100 nM, ATP Km apparent, read-out: % of inhibition of the kinase compared to the control
T3 construct: purchased Invitrogen
T3 sequence (P35968 20-1356): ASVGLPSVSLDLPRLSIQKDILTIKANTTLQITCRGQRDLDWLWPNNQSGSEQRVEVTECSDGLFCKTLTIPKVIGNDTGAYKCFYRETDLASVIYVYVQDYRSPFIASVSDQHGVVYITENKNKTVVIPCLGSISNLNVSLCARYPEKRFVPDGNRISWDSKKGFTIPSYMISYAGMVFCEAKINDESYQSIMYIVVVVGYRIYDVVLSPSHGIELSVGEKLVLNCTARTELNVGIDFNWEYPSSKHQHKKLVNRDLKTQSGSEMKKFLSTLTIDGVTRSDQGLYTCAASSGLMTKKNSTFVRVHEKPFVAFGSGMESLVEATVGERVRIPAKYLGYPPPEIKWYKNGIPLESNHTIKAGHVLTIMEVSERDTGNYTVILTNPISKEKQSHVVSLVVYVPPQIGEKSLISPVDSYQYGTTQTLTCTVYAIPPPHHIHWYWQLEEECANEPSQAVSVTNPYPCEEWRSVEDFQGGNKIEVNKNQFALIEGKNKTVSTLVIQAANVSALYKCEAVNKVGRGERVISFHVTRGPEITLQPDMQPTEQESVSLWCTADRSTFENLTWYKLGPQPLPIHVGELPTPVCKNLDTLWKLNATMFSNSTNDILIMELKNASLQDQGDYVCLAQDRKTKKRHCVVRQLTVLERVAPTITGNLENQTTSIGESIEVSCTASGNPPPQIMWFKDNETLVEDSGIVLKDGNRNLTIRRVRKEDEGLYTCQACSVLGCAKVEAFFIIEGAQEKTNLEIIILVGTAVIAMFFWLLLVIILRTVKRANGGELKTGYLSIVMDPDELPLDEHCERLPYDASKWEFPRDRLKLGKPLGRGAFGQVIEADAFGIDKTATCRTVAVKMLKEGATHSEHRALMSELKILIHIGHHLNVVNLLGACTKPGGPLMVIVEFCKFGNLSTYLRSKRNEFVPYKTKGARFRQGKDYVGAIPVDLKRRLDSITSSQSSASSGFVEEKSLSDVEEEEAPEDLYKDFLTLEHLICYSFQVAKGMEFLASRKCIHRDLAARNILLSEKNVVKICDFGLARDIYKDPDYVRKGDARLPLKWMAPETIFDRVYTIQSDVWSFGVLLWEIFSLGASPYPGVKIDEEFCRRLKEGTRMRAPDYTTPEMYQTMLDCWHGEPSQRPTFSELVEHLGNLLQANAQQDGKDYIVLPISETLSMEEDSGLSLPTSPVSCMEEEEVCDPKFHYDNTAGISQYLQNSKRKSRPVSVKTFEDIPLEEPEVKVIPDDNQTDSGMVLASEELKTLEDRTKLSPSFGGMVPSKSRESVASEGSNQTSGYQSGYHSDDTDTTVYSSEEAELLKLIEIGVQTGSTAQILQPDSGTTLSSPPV
Procedure, shortened: as §1

EGFR (ErbB1) = molecular target: T4, EGFR (ErbB1) (Homo sapiens, UniProt P00533); experiment: In vitro kinase assay (Z'-LYTE, Invitrogen); type: biochemical; conditions: compound at 100 nM, ATP Km apparent, read-out: % of inhibition of the kinase compared to the control
T4 construct: purchased Invitrogen
Procedure, shortened: as §1

BRAF = molecular target: T5, BRAF (Homo sapiens, UniProt P15056); experiment: In vitro kinase assay (Z'-LYTE, Invitrogen); type: biochemical; conditions: compound at 100 nM, ATP Km apparent, read-out: % of inhibition of the kinase compared to the control
T5 construct: purchased Invitrogen
T5 sequence (P15056 whole entry): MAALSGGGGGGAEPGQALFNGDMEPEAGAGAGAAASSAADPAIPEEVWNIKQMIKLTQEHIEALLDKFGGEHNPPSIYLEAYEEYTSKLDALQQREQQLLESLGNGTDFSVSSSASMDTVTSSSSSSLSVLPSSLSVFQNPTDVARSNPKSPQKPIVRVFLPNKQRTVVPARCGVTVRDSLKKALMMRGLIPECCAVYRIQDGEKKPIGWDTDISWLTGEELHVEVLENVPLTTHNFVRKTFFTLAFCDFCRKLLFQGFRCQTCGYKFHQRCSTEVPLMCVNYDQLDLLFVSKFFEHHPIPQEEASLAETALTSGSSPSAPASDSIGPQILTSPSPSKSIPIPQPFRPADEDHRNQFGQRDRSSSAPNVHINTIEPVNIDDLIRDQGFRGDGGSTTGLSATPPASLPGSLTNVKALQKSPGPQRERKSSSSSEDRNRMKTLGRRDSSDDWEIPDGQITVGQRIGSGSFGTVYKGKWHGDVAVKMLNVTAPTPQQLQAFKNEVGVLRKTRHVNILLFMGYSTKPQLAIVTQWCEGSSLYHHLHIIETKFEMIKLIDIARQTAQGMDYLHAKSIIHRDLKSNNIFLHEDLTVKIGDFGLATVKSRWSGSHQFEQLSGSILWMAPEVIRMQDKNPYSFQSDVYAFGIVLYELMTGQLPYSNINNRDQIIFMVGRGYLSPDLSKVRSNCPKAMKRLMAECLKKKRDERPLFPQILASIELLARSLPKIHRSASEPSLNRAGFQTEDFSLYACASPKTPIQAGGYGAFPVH
Procedure, shortened: as §1

FGFR2 = molecular target: T6, FGFR2 (Homo sapiens, UniProt P21802); experiment: In vitro kinase assay (Z'-LYTE, Invitrogen); type: biochemical; conditions: compound at 100 nM, ATP Km apparent, read-out: % of inhibition of the kinase compared to the control
T6 construct: purchased Invitrogen
T6 sequence (P21802 22-821): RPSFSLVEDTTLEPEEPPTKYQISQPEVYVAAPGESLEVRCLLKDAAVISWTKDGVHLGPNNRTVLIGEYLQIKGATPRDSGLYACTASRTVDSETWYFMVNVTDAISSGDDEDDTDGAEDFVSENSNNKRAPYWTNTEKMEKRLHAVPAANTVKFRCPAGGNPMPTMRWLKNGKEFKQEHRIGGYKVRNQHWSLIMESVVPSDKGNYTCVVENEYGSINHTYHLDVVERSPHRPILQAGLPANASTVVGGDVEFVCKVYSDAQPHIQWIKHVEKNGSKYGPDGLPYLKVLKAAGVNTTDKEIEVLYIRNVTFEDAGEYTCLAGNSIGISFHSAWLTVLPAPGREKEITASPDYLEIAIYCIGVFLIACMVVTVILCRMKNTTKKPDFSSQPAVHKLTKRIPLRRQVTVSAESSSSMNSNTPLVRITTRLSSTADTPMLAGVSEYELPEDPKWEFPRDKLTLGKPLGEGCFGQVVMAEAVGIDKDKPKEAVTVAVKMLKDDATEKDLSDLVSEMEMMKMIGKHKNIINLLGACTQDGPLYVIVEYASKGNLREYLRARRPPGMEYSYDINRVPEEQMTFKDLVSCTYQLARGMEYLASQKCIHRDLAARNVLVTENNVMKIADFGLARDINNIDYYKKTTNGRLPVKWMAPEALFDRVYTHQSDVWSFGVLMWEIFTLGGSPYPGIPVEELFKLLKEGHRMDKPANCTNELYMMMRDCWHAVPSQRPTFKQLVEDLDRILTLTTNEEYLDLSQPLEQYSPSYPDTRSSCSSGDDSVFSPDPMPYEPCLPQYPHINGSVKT
Procedure, shortened: as §1

HuH7 cell line = experiment: In vitro cell proliferation assay (MTT); type: cell-based; conditions: Homo sapiens, Huh-7, HuH7, 72 hr, read-out: EC50, anti-proliferative activity
Procedure, shortened: (§2)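 Duplicate 72 hr treatments spanning 10 nM–3 μM compound preceded MTT measurement of growth. Sigmoidal fitting yielded EC50, with normalization against DMSO controls set at 0% and 1% SDS controls set at 100%.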

A549 cell line = experiment: In vitro cell proliferation assay (MTT); type: cell-based; conditions: Homo sapiens, A549, 72 h, read-out: EC50, anti-proliferative activity
Procedure, shortened: as §2

HeLa cell line = experiment: In vitro cell proliferation assay (MTT); type: cell-based; conditions: Homo sapiens, 72 hr, 100 nM < EC50 < 1 μM, read-out: EC50, anti-proliferative activity
Procedure, shortened: as §2

HUVEC cells = experiment: In vitro cell proliferation assay (MTT); type: cell-based; conditions: Homo sapiens, 72 hr, read-out: EC50, anti-proliferative activity
Procedure, shortened: as §2

HuCCT1 cell line = experiment: In vitro cell proliferation assay (MTT); type: cell-based; conditions: Homo sapiens, HuCCT-1, HuCCT1, 72 hr, EC50 ≧ 1 μM, read-out: EC50, anti-proliferative activity
Procedure, shortened: as §2

HepG2 cell line = experiment: In vitro cell proliferation assay (MTT); type: cell-based; conditions: Homo sapiens, HepG2, 72 hr, read-out: EC50, anti-proliferative activity
Procedure, shortened: as §2

MDA-MB-231 cell line = experiment: In vitro cell proliferation assay (MTT); type: cell-based; conditions: Homo sapiens, MDA-MB-231, 72 hr, read-out: EC50, anti-proliferative activity
Procedure, shortened: as §2

HRMEC cells = experiment: In vitro cell proliferation assay (MTT); type: cell-based; conditions: 72 hr, read-out: EC50, anti-proliferative activity
Procedure, shortened: as §2

HuH6 Clone 5 cell line = experiment: In vitro cell proliferation assay (MTT); type: cell-based; conditions: HUH-6-clone5, HuH6 Clone 5, 72 hr, 100 nM < EC50 < 1 μM, read-out: EC50, anti-proliferative activity
Procedure, shortened: as §2

EGFR (ErbB1) T790M L858R = molecular target: T7, EGFR (ErbB1) T790M L858R (Homo sapiens, UniProt P00533, L858R/T790M); experiment: In vitro kinase assay (Z'-LYTE, Invitrogen); type: biochemical; conditions: compound at 100 nM, ATP Km apparent, read-out: % of inhibition of the kinase compared to the control
T7 construct: purchased Invitrogen
Procedure, shortened: as §1

H1975 cell line = experiment: In vitro cell proliferation assay (MTT); type: cell-based; conditions: Homo sapiens, NCI-H1975, H1975, 72 hr, EC50 ≧ 1 μM, read-out: EC50, anti-proliferative activity
Procedure, shortened: as §2

HT29 cell line = experiment: In vitro cell proliferation assay (MTT); type: cell-based; conditions: Homo sapiens, HT-29, HT29, 72 hr, EC50 ≧ 1 μM, read-out: EC50, anti-proliferative activity
Procedure, shortened: as §2

T1 sequence (P12931 whole entry): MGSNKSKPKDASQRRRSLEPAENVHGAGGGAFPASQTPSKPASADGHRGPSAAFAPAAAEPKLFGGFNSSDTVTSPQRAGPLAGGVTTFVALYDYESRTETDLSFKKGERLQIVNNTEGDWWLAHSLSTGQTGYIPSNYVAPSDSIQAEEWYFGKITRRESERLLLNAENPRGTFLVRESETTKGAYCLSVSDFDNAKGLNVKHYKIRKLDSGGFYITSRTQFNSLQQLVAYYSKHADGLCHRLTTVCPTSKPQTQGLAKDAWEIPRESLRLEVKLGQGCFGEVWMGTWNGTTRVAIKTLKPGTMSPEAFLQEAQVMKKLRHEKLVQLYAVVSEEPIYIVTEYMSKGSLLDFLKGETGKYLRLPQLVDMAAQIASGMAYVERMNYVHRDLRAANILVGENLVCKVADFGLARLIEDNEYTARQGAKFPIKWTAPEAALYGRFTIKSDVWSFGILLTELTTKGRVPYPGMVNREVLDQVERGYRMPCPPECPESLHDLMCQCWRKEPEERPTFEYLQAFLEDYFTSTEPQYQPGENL

Row | Structure (SMILES) | inhibition at 0.1 µM (SRC) | inhibition at 0.1 µM (PDGFRA (PDGFR alpha)) | inhibition at 0.1 µM (KDR (VEGFR2)) | inhibition at 0.1 µM (EGFR (ErbB1)) | inhibition at 0.1 µM (BRAF) | inhibition at 0.1 µM (FGFR2) | EC50 (HuH7 cell line; 100 nM < EC50 < 1 μM) | EC50 (A549 cell line; EC50 ≦ 100 nM) | EC50 (HeLa cell line) | EC50 (HepG2 cell line; 100 nM < EC50 < 1 μM) | EC50 (MDA-MB-231 cell line; 100 nM < EC50 < 1 μM) | EC50 (HuH6 Clone 5 cell line) | inhibition at 0.1 µM (EGFR (ErbB1) T790M L858R) | EC50 (A549 cell line; EC50 ≧ 1 μM) | EC50 (H1975 cell line) | EC50 (HT29 cell line) | EC50 (HUVEC cells; EC50 ≦ 100 nM) | EC50 (HuCCT1 cell line) | EC50 (HRMEC cells; 100 nM < EC50 < 1 μM) | EC50 (HUVEC cells; EC50 ≧ 1 μM) | further results
1 | CC(=O)c1cc2cc(CCc3cc(NC(=O)c4ccc(CN5CCC(N(C)C)C5)c(C(F)(F)F)c4)ccc3C)cnc2[nH]1 (stereo not shown) [OR0798, N-{3-[2-(2-Acetyl-1H-pyrrolo[2,3-b]pyridin-5-yl)-ethyl]-4-methyl-phenyl}-4-(3-dimethylamino-pyrrolidin-1-ylmethyl)-3-trifluoromethyl-benzamide] | ≥ 50% | ≥ 50% | ≥ 50% | ≥ 50% | ≥ 50% | ≥ 50% | 100 to 1000 nM | ≤ 100 nM | 100 to 1000 nM | 100 to 1000 nM | 100 to 1000 nM | 100 to 1000 nM | – | – | – | – | ≤ 100 nM | ≥ 1000 nM | 100 to 1000 nM | – | –
2 | CC(=O)c1cc2cc(CCc3cc(NC(=O)c4ccc(CN5CCN(C)CC5)c(C(F)(F)F)c4)ccc3C)cnc2[nH]1 [OR0797, N-{3-[2-(2-Acetyl-1H-pyrrolo[2,3-b]pyridin-5-yl)-ethyl]-4-methyl-phenyl}-4-(4-methyl-piperazin-1-ylmethyl)-3-trifluoromethyl-benzamide] | ≥ 50% | ≥ 50% | ≥ 50% | ≥ 50% | ≥ 50% | ≥ 50% | – | ≤ 100 nM | 100 to 1000 nM | 100 to 1000 nM | – | 100 to 1000 nM | – | – | – | – | ≤ 100 nM | ≥ 1000 nM | – | – | EC50 (HuH7 cell line; EC50 ≦ 100 nM): ≤ 100 nM; EC50 (MDA-MB-231 cell line; EC50 ≦ 100 nM): ≤ 100 nM; EC50 (HRMEC cells; EC50 ≦ 100 nM): ≤ 100 nM
3 | CC(=O)c1cc2cc(CCc3cc(NC(=O)c4ccc(CN5CC[C@H](N(C)C)C5)c(C(F)(F)F)c4)ccc3C)cnc2[nH]1 [OR0812, N-{3-[2-(2-Acetyl-1H-pyrrolo[2,3-b]pyridin-5-yl)-ethyl]-4-methyl-phenyl}-4-((S)-3-dimethylamino-pyrrolidin-1-ylmethyl)-3-trifluoromethyl-benzamide] | ≥ 50% | ≥ 50% | ≥ 50% | ≥ 50% | ≥ 50% | ≥ 50% | 100 to 1000 nM | ≤ 100 nM | 100 to 1000 nM | 100 to 1000 nM | 100 to 1000 nM | – | – | – | ≥ 1000 nM | ≥ 1000 nM | – | – | 100 to 1000 nM | – | EC50 (HUVEC cells; 100 nM < EC50 < 1 μM): 100 to 1000 nM

More lines, main results first:

Row | inhibition at 0.1 µM (SRC) | inhibition at 0.1 µM (PDGFRA (PDGFR alpha)) | inhibition at 0.1 µM (KDR (VEGFR2)) | inhibition at 0.1 µM (EGFR (ErbB1)) | inhibition at 0.1 µM (BRAF) | inhibition at 0.1 µM (FGFR2) | EC50 (HuH7 cell line; 100 nM < EC50 < 1 μM) | EC50 (A549 cell line; EC50 ≦ 100 nM) | EC50 (HeLa cell line) | EC50 (HepG2 cell line; 100 nM < EC50 < 1 μM) | EC50 (MDA-MB-231 cell line; 100 nM < EC50 < 1 μM) | EC50 (HuH6 Clone 5 cell line) | inhibition at 0.1 µM (EGFR (ErbB1) T790M L858R) | EC50 (A549 cell line; EC50 ≧ 1 μM) | EC50 (H1975 cell line) | EC50 (HT29 cell line) | Structure (SMILES) | EC50 (HUVEC cells; EC50 ≦ 100 nM) | EC50 (HuCCT1 cell line) | EC50 (HRMEC cells; 100 nM < EC50 < 1 μM) | EC50 (HUVEC cells; EC50 ≧ 1 μM) | further results
4 | ≥ 50% | ≥ 50% | ≥ 50% | ≥ 50% | < 50% | < 50% | – | – | – | – | – | – | < 50% | ≥ 1000 nM | ≥ 1000 nM | ≥ 1000 nM | COC(=O)c1cc2cc(COc3cc(NC(=O)c4ccc(CN5CCN(C)CC5)cc4)ccc3C)cnc2[nH]1 [OR0779, 5-{2-Methyl-5-[4-(4-methyl-piperazin-1-ylmethyl)-benzoylamino]-phenoxymethyl}-1H-pyrrolo[2,3-b]pyridine-2-carboxylic acid methyl ester] | – | ≥ 1000 nM | – | ≥ 1000 nM | EC50 (HepG2 cell line; EC50 ≧ 1 μM): ≥ 1000 nM; EC50 (HRMEC cells; EC50 ≧ 1 μM): ≥ 1000 nM
5 | < 50% | ≥ 50% | < 50% | ≥ 50% | < 50% | < 50% | – | – | – | – | – | – | < 50% | ≥ 1000 nM | ≥ 1000 nM | ≥ 1000 nM | COC(=O)c1cc2cc(CNc3cc(NC(=O)c4ccc(CN5CCN(C)CC5)cc4)ccc3C)cnc2[nH]1 [OR0746, 5-({2-Methyl-5-[4-(4-methyl-piperazin-1-ylmethyl)-benzoylamino]-phenylamino}-methyl)-1H-pyrrolo[2,3-b]pyridine-2-carboxylic acid methyl ester] | – | ≥ 1000 nM | – | ≥ 1000 nM | EC50 (HepG2 cell line; EC50 ≧ 1 μM): ≥ 1000 nM; EC50 (HRMEC cells; EC50 ≧ 1 μM): ≥ 1000 nM

Source: US9550772B2, “Azaindole derivatives as multi kinase inhibitors” (ORIBASE PHARMA, priority 2012, dated 2017)
